# Entries after “also recorded” stand apart in the source; their conditions may differ.
# Key:
# [1] = test system: βE539A,E542A γE548A,E551A-ENaC (βM2γM2); test: Whole-cell patch clamp, βM2γM2-ENaC; assay type: cell-based, human; details: HEK-293, 200 nM solnatide
# Procedure: Point mutations of α-, β-, γ- and δ-hENaC and PHA1B frameshift mutations of α-hENaC were prepared with the QuikChange Lightning Site-Directed Mutagenesis Kit (Agilent Technologies, CA, USA). Mutagenic primers were designed individually with the Primer Design Program provided on the producer’s website or for the frameshift mutations the same base changes as reported in patients (see Table 2) were performed. Primers were ordered from Sigma-Aldrich, Vienna, Austria.
# HEK-293 cells were transfected 1 day after cell seeding using X-tremeGENE HP DNA transfection reagent (Roche Diagnostics, Mannheim, Germany) according to the manufacturer’s protocol. A set of WT or mutant αβγ- or δβγ-hENaC, or α-, β-, γ-, or δ-hENaC alone was used, and the ratio of DNA to transfection reagent was 1:3. The expression was highest 48–72 h after transfection.
# Electrophysiological experiments were performed as described in detail by Shabbir et al. ([16]). […] Currents were recorded with the patch clamp method in the whole-cell mode. The chamber contained 1 ml of the bath solution of the following composition (in mM): 145 NaCl, 2.7 KCl, 1.8 CaCl2, 2 MgCl2, 5.5 glucose, and 10 HEPES, adjusted to pH 7.4 with 1 M NaOH solution. Micropipettes were pulled from thin-walled borosilicate glass capillaries (Harvard Apparatus, Holliston, MA, USA) with a DMZ Zeitz Puller to obtain electrode resistances ranging from 2 to 5 MΩ. […]
# [2] = test system: δ-ENaC; details: HEK-293, 5 and 10 min; returns after 1 h; cited from earlier work
# [3] = test system: α-ENaC (WT αβγ-ENaC); test: Membrane abundance of WT α-ENaC (cell surface biotinylation, Western blot); assay type: cell-based, human; details: HEK-293, 200 nM solnatide, relative to WT control (=1), p < 0.001 vs control
# Procedure: (§1) Cell surface biotinylation was performed as previously described ([26]). In brief, A549 cells or transiently transfected HEK-293 cells were grown in 10 cm dishes in 37°C, 5% CO2 incubator in DMEM medium supplemented with 5% FBS. […] Medium was aspirated, and then cells were washed twice with 10 ml ice-cold phosphate-buffered saline (PBS), covered with 2.5 mg EZ-Link Sulfo-NHS-SS-Biotin (Thermo Scientific, Rockford, USA), dissolved in 10 ml ice-cold PBS, and incubated at 4°C with gentle agitation for 30 min. Fifty milliliters of quenching solution were added to cells; then cells were scraped in solution and transferred to fresh 50 ml tube. Cell suspension was centrifuged at 500 × g for 3 min. Supernatant was discarded, and 5 ml of Tris-buffered saline (TBS) was added to the cell pellet. The cell pellet was resuspended and centrifuged at 500 × g for 3 min. Supernatant was discarded and cell pellet was resuspended in lysis buffer containing protease inhibitor cocktail (10 µM pepstatin A, 10 µM phenylmethylsulfonyl fluoride, and 10 µM leupeptin) and transferred to fresh 1.5 ml centrifuge tube. Cell pellet was then homogenized on ice by ultrasonication using 1 s bursts and incubated on ice for at least 30 min. Intact cells and nuclei were pelleted by centrifugation at 10,000 × g for 2 min under cooling conditions. […] Exposed films were scanned and quantified using ImageJ (NIH, MD, USA).
# [4] = test system: αI68fs; test: Membrane abundance of αI68fs; assay type: cell-based, human; details: 200 nM, relative to WT control (=1)
# Procedure: as §1, with “USA). […]” for “USA).”
# [5] = test system: αL576Xβγ-ENaC; details: cited from earlier work
# [6] = test system: pulmonary edema; details: acute hypobaric hypoxia and exercise; cited from earlier work
# Excerpt: (§2) Like TNF, TIP peptide can influence regulation of alveolar fluid balance.
# [7] = test system: flooded rat lung; details: in situ and in vivo; cited from earlier work
# Excerpt: as §2
structure (smiles),measurement,setting,value
"C[C@@H]1NC(=O)CNC(=O)[C@H](CCC(=O)O)NC(=O)[C@@H]2CCCN2C(=O)[C@H]([C@@H](C)O)NC(=O)[C@H](CCC(=O)O)NC(=O)[C@H](CCCNC(=N)N)NC(=O)[C@H](CCC(N)=O)NC(=O)CNC(=O)[C@@H](N)CSSC[C@@H](C(=O)O)NC(=O)[C@H](Cc2ccc(O)cc2)NC(=O)[C@H](Cc2c[nH]c3ccccc23)NC(=O)[C@@H]2CCCN2C(=O)[C@H](CCCCN)NC(=O)[C@H](C)NC(=O)[C@H](CCC(=O)O)NC1=O [solnatide, L-cysteine, L-cysteinylglycyl-L-glutaminyl-L-arginyl-L-α-glutamyl-L-threonyl-L-prolyl-L-α-glutamylglycyl-L-alanyl-L-α-glutamyl-L-alanyl-L-lysyl-L-prolyl-L-tryptophyl-L-tyrosyl-, cyclic (1→17)-disulfide]",Effect of solnatide on current (words),[1]; n = 3,A small increase in the amiloride-sensitive Na^+ current was still observed; also recorded: still able to activate βM2γM2-ENaC (not significant) to an equal extent as WT βγ-ENaC
same,Effect of solnatide on current (words),"[1]; n = 3, listed as Solnatide",still increased the amiloride-sensitive sodium current in these mutants
same,"Membrane abundance, solnatide",[2],significant statistically
same,"Membrane abundance, solnatide 5 min","[3]; 5 min, normalized to β-actin",1.48 ± 0.12
same,"Membrane abundance, solnatide 10 min",[3]; 10 min,1.40 ± 0.09
same,"Membrane abundance, solnatide 5 min","[4]; 5 min, own control 0.15 ± 0.06, p < 0.05 vs control",0.25 ± 0.07
same,"Membrane abundance, solnatide 10 min","[4]; 10 min, own control 0.15 ± 0.06, p < 0.01 vs control",0.32 ± 0.11
same,Effect of solnatide on amiloride-sensitive current,[5],a residual albeit non-significant increase in the amiloride-sensitive current
same,"Current increase, glycosylation sites removed",[5]; glycosylation sites in extracellular loop removed by mutation,small increase was not seen
same,Therapeutic activity,[6],profound therapeutic activity
same,Alveolar fluid reabsorption,[7],activate fluid reabsorption in in situ and in vivo flooded rat lung models

# — article PMC5447021, “TNF Lectin-Like Domain Restores Epithelial Sodium Channel Function in Frameshift Mutants Associated with Pseudohypoaldosteronism Type 1B” (Frontiers in Immunology, 2017)
